# Legend:
# [1] = target: T1, p7NC protein in intact HIV-1MN virions (HIV-1 M:B_MN, UniProt P05888); test: p7NC immunoblot of treated intact virions, non-reducing SDS-PAGE; type: biochemical; settings: for detectable virion p7NC / cross-linkage of virion NC proteins: HIV-1MN, FIG. 2(A)
# T1 construct: cut from Gag polyprotein Pr55gag (also Gag-Pol Pr160)
# Method: Fluorescence measurements of the Trp^37 residue in the C-terminal zinc finger of the recombinant HIV-1 p7NC protein were performed as previously described (Rice et al., Science 270:1194, 1995). The p7NC protein was prepared at 20 μg/ml in 10 mM sodium phosphate buffer (pH 7.0), treated with 25 μM of each compound, then after indicated time intervals the samples were diluted 1/10 in 10 mM sodium phosphate buffer (pH 7.0) and the fluorescence intensity measured. The excitation and emission wavelengths utilized with the Shimadzu RF5000 spectrofluorimeter were 280 nm and 351 nm, respectively. In an alternate assay, the zinc-selective fluorescent probe N-(6-methoxy-8quinolyl-)-p-toluenesulfonamide (TSQ, Molecular Probes, Eugene, Oreg.) originally described by Fredrickson (J. Neurosci. Meth. 20:91, 1987) was utilized to measure zinc released from the p7NC protein in vitro. Briefly, 2 μM recombinant HIV-1 p7NC protein in 10 mM sodium phosphate buffer, pH 7.0, 10% glycerol was treated with 10 μM 624151 ([…] total volume in 96-well plates), and the time-dependent increase in fluorescence was measured on a Labsystems Fluoroskan II (360 nm excitation filter and 460 nm emission filter) over a period of 2 hours. Induction of alterations of p7NC proteins within intact virions involved treatment of HIV-1MN for 1 hour at 37° C. with 25 μM test compound. Samples were centrifuged 1 hour at 4° C. under 18,000×g to pellet the virus from the drug. Virus pellets were resolved by non-reducing SDS-PAGE and analyzed by immunoblot using monospecific rabbit antisera to the purified p7NC protein.
# In order to determine if the 624151 entered intact HIV-1 virions and affected the p7NC protein zinc fingers, purified HIV-1MN was treated with increasing concentrations of the compound and the viral proteins were then separated by non-reducing SDS-PAGE and immunoblotted with monospecific antisera to the p7NC protein (FIG. 2(A)). […] Thus, 624151 effectively entered and inactivated cell-free HIV-1 virions by chemically attacking the p7NC CCHC zinc fingers and promoting cross-linkage among the p7NC proteins.
# [2] = system: HIV-1RF virions; test: viral inactivation assay, HeLa-CD4-LTR-βgal cells; type: cell-based; settings: FIG. 2(B), in words
# Method: HeLa-CD4-LTR-βgal cells (1.5×10^4 /well) were plated in 200 μl volume in flat bottom 96-well microtiter plates for 24 hours, after which the fluid was removed and replaced with drug-treated samples. The HIV-1RF stock was treated with various concentrations NSC 624151 for 2 hours at 37° C., followed by centrifugation (18,000×g for 1 hour at 4° C.) to remove compound from the virus, preparation of serial two-fold dilutions and plating of 200 μl of each dilution in triplicate onto the cell monolayer. The cultures were then incubated for 4 additional days, and monolayers were then fixed for 5 minutes with 2% formaldehyde/2% glutaraldehyde, washed twice with cold PBS and then stained with X-gal substrate for 24 hours at 37° C. The number of blue-stained cells (each indicating a single infectious unit) were then counted in each well and the number of infectious units per ml (mean±SD) of sample were determined values calculated.
# [3] = system: HIV-1 from latently infected U1 cells; test: virus production from TNF-α stimulated latently infected U1 cells; type: cell-based; settings: FIG. 3(A); for formation of infectious virus from infected cells: in words
# Method: U1 cells latently infected with two copies of HIV-1 proviral DNA per cell (Clous et al., J. Immunol. 142: 431-438, (1989)) were treated with 5 ng/ml tumor necrosis factor-α(TNF-α) for 24 hours to stimulate production of HIV-1 virions, after which various concentrations of 624151 were added to the cultures and incubated for an additional 48 hours. Cultures were analyzed for cell viability by the XTT reduction assay and cells were counted and scored for viability by trypan blue exclusion. Cells pellets were lysed (0.5% Triton X-100, 300 mM NaCl, 50 mM Tris-HCl, pH 7.6, 10 μg/ml each of Leupeptin and aprotinin (Boehringer Mannheim), 1.8 mg/ml iodoacetamide (Sigma Chemical Co., St. Louis, Mo.) and 1.0 mg/ml the protease inhibitor Pefabloc SC (Boehringer Mannheim at 4° C. for 15 min. and then quantitated for viral p24 content by ELISA. Cell-free supernatant samples were collected and analyzed for virus content by p24 ELISA, and infectivity in cultures of 174xCEM cells. Briefly, serial 1/2 dilutions of the supernatant were placed with 5×10^3 174xCEM cells and cultured for 7 days, cell supernatants were analyzed for viral p24 content, and the number of infectious units/ml calculated. In addition, cell free supernatants were centrifuged at 17,000×g for 1 hour at 4° C. to collect virion pellets. Proteins from both the virion and cellular lysates were separated by 4-20% SDS-PAGE (50 μg protein per lane), blotted onto PVDF membranes, reacted with anti-p7 and anti-p24 antisera, and then probed with HRP-conjugated goat anti-rabbit IgG and subsequently viewed with Western Blot Chemiluminescence Reagent (Dupont NEN, Wilmington, Del.).
# Once proviral DNA has integrated into the cellular DNA, compounds that act on replicative events during the pre-integrative phase of infection are without effect. However, the zinc fingers as a part of the Pr55^gag and Pr160^gag-pol participate in the post-integrative phase production of progeny infectious virions, and the zinc finger-reactive 624151 should affect those functions. To test this possibility, we evaluated the effects of 624151 on cell viability and the production of viral proteins and infectious virions from U1 cells that latently harbor two copies of HIV-1 proviral DNA. Stimulation of U1 cells with TNF-α results in the production of high levels of p24 and infectious virions.
# [4] = non-reducing SDS-PAGE, in words
structure (smiles),measurement,setting,value
"O=S1(=O)C[C@H](O)[C@H](O)CS1 (relative stereo) [NSC 624151, cis-1,1-dioxo[1,2]dithiane-4,5-diol]",detectable virion p7NC / cross-linkage of virion NC proteins,[1]; [4],enter intact virions and cause disulfide cross-linkage between virion NC proteins
same,detectable virion p7NC / cross-linkage of virion NC proteins,"[1]; non-reducing SDS-PAGE, in words, listed as 624151",decreases in the amounts of detectable virion p7NC
same,interactions with other viral proteins,[1]; [4],no interactions with other proteins was observed
same,virion p7NC profile under reducing conditions,[1]; reducing conditions (not shown),no alterations in the virion p7NC profile were observed
same,inactivation of viral infectivity,[2],enter intact virions and inactivate the viral infectivity
same,inactivation of viral infectivity,[2]; listed as 624151,concentration-dependant inactivation of viral infectivity
same,formation of infectious virus from infected cells,[3],inhibition of the formation of infectious virus from HIV-1 infected cells
same,formation of infectious virus from infected cells,[3]; listed as 624151,prevention of the formation of infectious virus from previously infected cells
same,minimal effective concentration,"[3]; Human immunodeficiency virus 1, 48 h, TNF-α stimulated U1 cells, read-out: concentration (as low as) at which infectious titer of released virions was effectively reduced",3 µM
same,levels of intracellular or extracellular viral p24,[3]; TNF-α stimulated U1 cells,did not dramatically reduce the levels of intracellular or extracellular viral p24

# Source: US6046228A, “Anti-viral pharmaceutical compositions containing saturated 1,2-dithiaheterocyclic compounds and uses thereof” (priority 1999, dated 2000)
